Molecules are shown by their SMILES.

The text below walks through data of PMC5101293, “Acyclic nucleoside phosphonates containing the amide bond” (Monatshefte Fur Chemie, 2016).

One series has as its system murine leukemia L1210. The series can be described thus: Cytostatic activity assay, L1210. It counts as cell-based. Conditions: Mus musculus; L1210 cells, 48 h; read-out: IC50 (50% cytostatic inhibitory concentration, cell proliferation). As for the experimental part:
(§1) The 50% cytostatic inhibitory concentration (IC50) causing a 50% decrease in cell proliferation was determined against murine leukemia L1210, human lymphocyte CEM, human cervix carcinoma HeLa, and human dermal microvascular endothelial cells (HMEC-1).
(§2) All assays were performed in 96-well microtiter plates. To each well were added (5–7.5) × 10^4 tumor cells and a given amount of the test compound. The cells were allowed to proliferate for 48 h (murine leukemia L1210 cells) or 72 h (human lymphocytic CEM and human cervix carcinoma HeLa cells) at 37 °C in a humidified CO2-controlled atmosphere. At the end of the incubation period, the cells were counted in a Coulter counter. The IC50 (50% inhibitory concentration) was defined as the concentration of the compound that inhibited cell proliferation by 50%.

The test system of series [1] is human cervix carcinoma HeLa. The series can be described thus: Cytostatic activity assay, HeLa. It counts as cell-based. The following applies: HeLa cells, 72 h, read-out: IC50 (50% cytostatic inhibitory concentration, cell proliferation). How it is done: as §1, §2
The test system of a further series is L1210 cells. More on the design: method as in doi:10.1135/cccc19822806. The following applies: cited from earlier work.

Regarding `CCOP(=O)(CNC(=O)Cn1ccc(=O)[nH]c1=O)OCC`, the melting point – broadly, the temperature, or range, at which the solid turns liquid – lay within 215 to 217 °C.
Still for that read-out and setting: with `CCOP(=O)(CCNC(=O)Cn1ccc(=O)[nH]c1=O)OCC` the figure was 138 to 140 °C.
Same read-out and setting: with `CCOP(=O)(CCNC(=O)Cn1cc(F)c(=O)[nH]c1=O)OCC` the figure was 185 to 186 °C; with `CCOP(=O)(CNC(=O)Cn1cc(Br)c(=O)[nH]c1=O)OCC`, 211 to 213 °C; with `CCOP(=O)(CCNC(=O)Cn1cc(Br)c(=O)[nH]c1=O)OCC`, 211 to 213 °C.
Still for that read-out and setting: the figure for `CCOP(=O)(CCCNC(=O)Cn1cc(Br)c(=O)[nH]c1=O)OCC` is 164 to 166 °C; for `CCOP(=O)(CNC(=O)Cn1cc(C)c(=O)[nH]c1=O)OCC` it is 211.5 to 212.5 °C; for `CCOP(=O)(CCNC(=O)Cn1cc(C)c(=O)[nH]c1=O)OCC` it is 196 to 197 °C.
Consider `CCOP(=O)(CCNC(=O)Cn1ccc(NC(=O)OCc2ccccc2)nc1=O)OCC`, for which the melting point was in the range of 127 to 128 °C.
Still for that read-out and setting: the figure for `CCOP(=O)(CCCNC(=O)Cn1ccc(NC(=O)OCc2ccccc2)nc1=O)OCC` is 150 to 151 °C; for `CCOP(=O)(CCNC(=O)Cn1c(=O)[nH]c(=O)c2ccccc21)OCC` it is 180 to 182 °C; for `CCOP(=O)(CCCNC(=O)Cn1c(=O)[nH]c(=O)c2ccccc21)OCC` it is 168 to 169 °C.
Still for that read-out and setting: with `CCOP(=O)(CNC(=O)Cn1cnc2c(N(C(=O)OC(C)(C)C)C(=O)OC(C)(C)C)ncnc21)OCC` the figure was 128 to 130 °C; with `CCOP(=O)(CCNC(=O)Cn1cnc2c(Cl)nc(N)nc21)OCC`, 158 to 160 °C; with `CCOP(=O)(CCCNC(=O)Cn1cnc2c(Cl)nc(N)nc21)OCC`, 180 to 181 °C.
Compound `CCOP(=O)(CCCNC(=O)Cn1ccc(=O)[nH]c1=O)OCC` (hydrate or solvate) returned a melting point of 120 to 122 °C.
Same read-out and setting: with `CCOP(=O)(CNC(=O)Cn1cc(F)c(=O)[nH]c1=O)OCC` (hydrate or solvate) the figure was 205 to 208 °C; with `CCOP(=O)(CCCNC(=O)Cn1cc(F)c(=O)[nH]c1=O)OCC` (hydrate or solvate), 143 to 144 °C; with `CCOP(=O)(CCCNC(=O)Cn1cc(C)c(=O)[nH]c1=O)OCC` (hydrate or solvate), 183 to 184 °C.
`CCOP(=O)(CNC(=O)Cn1ccc(NC(=O)OCc2ccccc2)nc1=O)OCC` (hydrate or solvate) gave a melting point of 180 to 182 °C.
Still for that read-out and setting: with `CCOP(=O)(CNC(=O)Cn1c(=O)[nH]c(=O)c2ccccc21)OCC` (hydrate or solvate) the figure was 203 to 205 °C; with `CCOP(=O)(CNC(=O)Cn1cnc2c(Cl)nc(N)nc21)OCC` (hydrate or solvate), 130 to 132 °C; with `CCOP(=O)(CNC(=O)Cn1cnc2c(=O)[nH]c(N)nc21)OCC` (hydrate or solvate), 165 °C (dec.).
Same read-out and setting: with `CCOP(=O)(CCNC(=O)Cn1cnc2c(=O)[nH]c(N)nc21)OCC` (hydrate or solvate) the figure was 175 °C (dec.); with `CCOP(=O)(CCCNC(=O)Cn1cnc2c(=O)[nH]c(N)nc21)OCC` (hydrate or solvate), 155 °C (dec.).
On to `CCOP(=O)(COCCNC(=O)Cn1cc(F)c(=O)[nH]c1=O)OCC` [18d], for which the melting point was 69 to 70 °C. The IC50 in the series on murine leukemia L1210 came out at 89 ± 16 µM. For the same compound, the IC50 in series [1] was 194 ± 19 µM.
Consider `O=C(Cn1cc(F)c(=O)[nH]c1=O)NC(CO)(CO)CO` [18e], for which the “concentration at which found active in vitro against L1210 cells” value in the series on L1210 cells is 15 µM.
